Laboratory results published in the supplement of paper PMC10307832.

compound: O=C(O)C(Cc1ccccc1[N+](=O)[O-])=NNc1nc(-c2ccc(Cl)c(Cl)c2)cs1 (mixture of isomers) [4EGI-1] + CC(=O)c1c(C)c2cnc(Nc3ccc(N4CCNCC4)cn3)nc2n(C2CCCC2)c1=O [Palbociclib] (partner 0.5 µM); assay: relative viability (nuclei count vs DMSO), 5 days (fraction); higher = more cells survive; settings: first compound 50 µM
Procedure, shortened: (§1)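 Relative viability is defined as nuclei in treated wells over nuclei in vehicle wells. Duplicate plates were run and medians reported. Lung cancer cell lines in 1536-well plates were dosed by pin tool one day after seeding, with one drug or with a fixed anchor-drug dose plus five library-drug doses (not always all listed) in √10 steps, and nuclei were counted after 5 days.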

With UMC-11 the relative viability was 0.305.

compound: O=C(O)C(Cc1ccccc1[N+](=O)[O-])=NNc1nc(-c2ccc(Cl)c(Cl)c2)cs1 (mixture of isomers) [4EGI-1] + O=C(c1cc(Cc2n[nH]c(=O)c3ccccc23)ccc1F)N1CCN(C(=O)C2CC2)CC1 [Olaparib] (partner 8 µM); assay: as above; settings: first compound 0.5 µM
Procedure, shortened: as §1

Point of comparison: NCI-H647, relative viability 0.515. Against it:
- NCI-H322M — higher, 0.761
- NCI-H358 — higher, 0.599
- NCI-H441 — higher, 0.654
- NCI-H460 — lower, 0.425
- NCI-H520 — lower, 0.375
- NCI-H522 — higher, 0.694
- NCI-H650 — lower, 0.439
- NCI-H661 — higher, 0.765
- NCI-H727 — higher, 0.638
- NCI-H838 — higher, 0.752
- NCI-H1355 — higher, 0.86
- NCI-H1395 — lower, 0.492
- NCI-H1437 — higher, 0.655
- NCI-H1648 — higher, 0.742
- NCI-H1650 — higher, 0.757
- NCI-H1651 — lower, 0.186
- NCI-H1666 — higher, 0.74
- NCI-H1734 — higher, 0.642
- NCI-H1755 — higher, 0.936
- NCI-H1793 — higher, 1.02
- NCI-H1915 — lower, 0.261
- NCI-H1944 — lower, 0.506
- NCI-H1975 — higher, 0.893
- NCI-H1993 — higher, 1.11
- NCI-H2009 — higher, 0.768
- NCI-H2023 — lower, 0.5
- NCI-H2085 — higher, 0.764
- NCI-H2087 — higher, 0.633
- NCI-H2126 — higher, 1
- NCI-H2170 — higher, 0.625
- NCI-H2228 — higher, 0.947
- NCI-H2342 — lower, 0.472
- NCI-H2347 — higher, 0.555
- NCI-H2405 — higher, 0.909
- NCI-H3122 — higher, 0.578
- PC-3 [JPC-3] — higher, 1.16
- PC-14 — lower, 0.295
- RERF-LC-KJ — higher, 0.97
- SK-LU-1 — lower, 0.484
- SK-MES-1 — higher, 0.767
- SW 900 — higher, 0.923
- SW 1573 — higher, 0.529
- UMC-11 — lower, 0.36

same assay, conditions: first compound 1.581 µM

Point of comparison: NCI-H2126, relative viability 0.927. Against it:
- NCI-H358 — lower, 0.58
- NCI-H441 — lower, 0.425
- NCI-H520 — lower, 0.329
- NCI-H522 — lower, 0.776
- NCI-H647 — lower, 0.42
- NCI-H661 — lower, 0.637
- NCI-H727 — lower, 0.679
- NCI-H838 — lower, 0.752
- NCI-H1355 — lower, 0.742
- NCI-H1437 — lower, 0.625
- NCI-H1648 — lower, 0.79
- NCI-H1651 — lower, 0.176
- NCI-H1666 — lower, 0.727
- NCI-H1734 — lower, 0.512
- NCI-H1755 — lower, 0.811
- NCI-H1793 — higher, 1.16
- NCI-H1915 — lower, 0.207
- NCI-H1975 — lower, 0.682
- NCI-H1993 — higher, 0.965
- NCI-H2009 — lower, 0.63
- NCI-H2023 — lower, 0.306
- NCI-H2085 — lower, 0.72
- NCI-H2087 — lower, 0.562
- NCI-H2170 — lower, 0.541
- NCI-H2228 — lower, 0.702
- NCI-H2342 — lower, 0.429
- NCI-H2347 — lower, 0.487
- NCI-H3122 — lower, 0.554
- SK-LU-1 — lower, 0.448
- SK-MES-1 — lower, 0.508
- SW 900 — lower, 0.812
- SW 1573 — lower, 0.317
- UMC-11 — lower, 0.35

same assay, conditions: first compound 5 µM

Point of comparison: NCI-H1975, relative viability 0.805. Against it:
- NCI-H322M — lower, 0.795
- NCI-H358 — lower, 0.531
- NCI-H441 — lower, 0.597
- NCI-H460 — lower, 0.436
- NCI-H520 — lower, 0.458
- NCI-H522 — lower, 0.617
- NCI-H647 — lower, 0.469
- NCI-H650 — lower, 0.414
- NCI-H661 — lower, 0.584
- NCI-H727 — lower, 0.717
- NCI-H838 — lower, 0.677
- NCI-H1355 — lower, 0.795
- NCI-H1395 — lower, 0.47
- NCI-H1437 — lower, 0.589
- NCI-H1648 — higher, 0.965
- NCI-H1650 — lower, 0.803
- NCI-H1651 — lower, 0.185
- NCI-H1666 — lower, 0.778
- NCI-H1734 — lower, 0.695
- NCI-H1755 — higher, 0.858
- NCI-H1793 — higher, 1.13
- NCI-H1915 — lower, 0.275
- NCI-H1944 — lower, 0.391
- NCI-H1993 — higher, 1.21
- NCI-H2009 — lower, 0.647
- NCI-H2023 — lower, 0.432
- NCI-H2085 — lower, 0.739
- NCI-H2087 — lower, 0.542
- NCI-H2126 — higher, 0.858
- NCI-H2170 — lower, 0.567
- NCI-H2228 — lower, 0.693
- NCI-H2342 — lower, 0.43
- NCI-H2347 — lower, 0.567
- NCI-H2405 — higher, 0.883
- NCI-H3122 — lower, 0.667
- PC-3 [JPC-3] — higher, 1.17
- PC-14 — lower, 0.239
- RERF-LC-KJ — higher, 0.902
- SK-LU-1 — lower, 0.439
- SK-MES-1 — lower, 0.639
- SW 900 — higher, 0.936
- SW 1573 — lower, 0.672
- UMC-11 — lower, 0.369

same assay, conditions: first compound 15.81 µM

Point of comparison: NCI-H2342, relative viability 0.569. Against it:
- NCI-H322M — higher, 0.761
- NCI-H358 — lower, 0.336
- NCI-H441 — lower, 0.315
- NCI-H460 — lower, 0.244
- NCI-H520 — lower, 0.265
- NCI-H522 — higher, 0.574
- NCI-H647 — lower, 0.129
- NCI-H650 — lower, 0.404
- NCI-H661 — lower, 0.454
- NCI-H727 — lower, 0.496
- NCI-H838 — lower, 0.372
- NCI-H1355 — lower, 0.469
- NCI-H1395 — lower, 0.457
- NCI-H1437 — lower, 0.395
- NCI-H1648 — lower, 0.566
- NCI-H1650 — lower, 0.537
- NCI-H1651 — lower, 0.189
- NCI-H1666 — higher, 0.622
- NCI-H1734 — lower, 0.435
- NCI-H1755 — higher, 0.78
- NCI-H1793 — lower, 0.504
- NCI-H1915 — lower, 0.207
- NCI-H1944 — lower, 0.308
- NCI-H1975 — higher, 0.812
- NCI-H1993 — higher, 0.967
- NCI-H2009 — lower, 0.421
- NCI-H2023 — lower, 0.127
- NCI-H2085 — higher, 0.726
- NCI-H2087 — lower, 0.278
- NCI-H2126 — higher, 0.942
- NCI-H2170 — lower, 0.36
- NCI-H2228 — lower, 0.536
- NCI-H2347 — higher, 0.607
- NCI-H2405 — higher, 0.866
- NCI-H3122 — lower, 0.448
- PC-3 [JPC-3] — lower, 0.526
- PC-14 — lower, 0.1
- RERF-LC-KJ — lower, 0.489
- SK-LU-1 — lower, 0.431
- SK-MES-1 — lower, 0.229
- SW 900 — lower, 0.552
- SW 1573 — lower, 0.213
- UMC-11 — lower, 0.332

same assay, conditions: first compound 50 µM

Point of comparison: NCI-H1355, relative viability 0.334. Against it:
- NCI-H322M — higher, 0.457
- NCI-H358 — lower, 0.118
- NCI-H441 — lower, 0.192
- NCI-H460 — lower, 0.134
- NCI-H520 — lower, 0.13
- NCI-H522 — higher, 0.471
- NCI-H647 — lower, 0.0662
- NCI-H650 — lower, 0.288
- NCI-H661 — higher, 0.336
- NCI-H727 — higher, 0.592
- NCI-H838 — lower, 0.161
- NCI-H1395 — higher, 0.394
- NCI-H1437 — lower, 0.194
- NCI-H1648 — higher, 0.48
- NCI-H1650 — lower, 0.214
- NCI-H1651 — lower, 0.151
- NCI-H1666 — higher, 0.488
- NCI-H1734 — lower, 0.244
- NCI-H1755 — higher, 0.616
- NCI-H1793 — lower, 0.234
- NCI-H1915 — lower, 0.152
- NCI-H1944 — lower, 0.298
- NCI-H1975 — lower, 0.292
- NCI-H1993 — higher, 0.522
- NCI-H2009 — higher, 0.374
- NCI-H2023 — lower, 0.0742
- NCI-H2085 — higher, 0.374
- NCI-H2087 — lower, 0.162
- NCI-H2126 — higher, 0.654
- NCI-H2170 — lower, 0.189
- NCI-H2228 — lower, 0.128
- NCI-H2342 — higher, 0.51
- NCI-H2347 — higher, 0.533
- NCI-H2405 — higher, 0.395
- NCI-H3122 — lower, 0.301
- PC-3 [JPC-3] — higher, 0.484
- PC-14 — lower, 0.0599
- RERF-LC-KJ — lower, 0.254
- SK-LU-1 — lower, 0.224
- SK-MES-1 — lower, 0.148
- SW 900 — lower, 0.23
- SW 1573 — lower, 0.113
- UMC-11 — lower, 0.222
